Laboratory results reported in patent US20220023289A1, “Application Of Pyrroloquinoline Quinone In Preparation Of Medicament Used For Preventing And Treating Acute Altitude Sickness And Acute Altitude Hypoxia Injury” (priority 2018, published 2022).

Legend:
Type in all cases: in vivo, Wistar rat
[1] = tested on: rats exposed to acute altitude hypoxia; assay: Blood glucose in rats exposed to acute altitude hypoxia (6000 m, 8 h, after 7 days intragastric)
Experimental: (§1) Select healthy Wistar rats weight 160-200 g, half female and half male. After feeding for 3 days, these Wistar rats are randomly divided into ten groups according to their body weight, each group has 16±2 rats. The groups are divided as follows: five groups of the hypoxic exposure drug test group, respectively, are given 0.91 mg/kg, 1.83 mg/kg, 3.66 mg/kg, 7.31 mg/kg, and 14.63 mg/kg drugs. […] After continuous intragastric administration for 7 days, the animals in the hypoxic exposure group are simultaneously put into the decompression and hypoxia compound experimental chamber, the hatch is closed, and the pressure is reduced at a speed of 10 m/s. After being raised to an altitude of 6000 m and maintained for 8 hours, the speed in 10 m/s drops is reduced to normal altitude, open the hatch, and then take out the animal, collect blood samples (after standing for 1 hour, the supernatant is centrifuged and stored at −20° C.), and liver tissue samples. Detection indicator includes body weight, serum blood glucose, ATP, lactic acid, endothelin, nitric oxide, SOD, CO, MDA related to oxidative stress, and total protein, albumin, triglycerides, total cholesterol, high-density lipoprotein cholesterol, low-density lipoprotein cholesterol, glutamic pyruvic transaminase, total bilirubin, gluamic oxalacetic transaminase, serum urea nitrogen, creatinine, uric acid, lactate dehydrogenase, creatine kinase, α-hydroxybutyrate dehydrogenase; liver ATP, hepatic glycogen. Except that the formal oxygen control animal group is not put into the decompression and hypoxia compound experimental chamber, other experimental conditions and detection indicators are the same.
(§2) Measure blood glucose, total protein, albumin, triglycerides, total cholesterol, high-density lipoprotein cholesterol, low-density lipoprotein cholesterol, glutamic-pyruvic transaminase, total bilirubin, glutamic oxalacetic transaminase, serum urea nitrogen, creatinine, uric acid, lactate dehydrogenase, creatine kinase, α-hydroxybutyrate dehydrogenase, blood homocysteine by using an automatic blood biochemical analyzer.

[2] = tested on: rats exposed to acute altitude hypoxia; assay: Lipid metabolism in rats exposed to acute altitude hypoxia
Experimental: as §1, §2

[3] = tested on: rats exposed to acute altitude hypoxia; assay: Myocardial enzyme activity in rats exposed to acute altitude hypoxia
Experimental: as §1, §2

[4] = female rats, hypoxia, 0.91 mg/kg
[5] = female rats, hypoxia, 1.83 mg/kg
[6] = female rats, hypoxia, 3.66 mg/kg
[7] = female rats, hypoxia, 7.31 mg/kg
[8] = female rats, hypoxia, 14.63 mg/kg
[9] = female rats, normoxia, 3.66 mg/kg
[10] = male rats, hypoxia, 14.63 mg/kg

SMILES: O=C(O)c1cc(C(=O)O)c2c(n1)C(=O)C(=O)c1cc(C(=O)O)[nH]c1-2 [PQQ, pyrroloquinoline quinone]
- effect on blood glucose ([1]; acute hypoxia exposed female rats): increasing blood glucose
- Blood sugar [1, 4]: 8.59 ± 0.48 mmol/L
- Blood sugar [1, 5]: 8.28 ± 0.84 mmol/L
- Blood sugar [1, 6]: 8.27 ± 0.37 mmol/L
- Blood sugar [1, 7]: 7.91 ± 0.65 mmol/L
- Blood sugar [1, 8]: 7.55 ± 0.48 mmol/L
- effect on blood glucose ([1]; female rats, normoxia): no significant effects
- Blood sugar [1, 9]: 8.13 ± 0.57 mmol/L
- effect on blood glucose level ([1]; male rats): no significant effects
- Blood sugar ([1]; male rats, hypoxia, 0.91 mg/kg): 7.35 ± 1.94 mmol/L
- Blood sugar ([1]; male rats, hypoxia, 1.83 mg/kg): 8.21 ± 1.46 mmol/L
- Blood sugar ([1]; male rats, hypoxia, 3.66 mg/kg): 8.97 ± 1.44 mmol/L
- Blood sugar ([1]; male rats, hypoxia, 7.31 mg/kg): 8.28 ± 1.57 mmol/L
- Blood sugar [1, 10]: 8.85 ± 2.04 mmol/L
- High density lipoprotein cholesterol [2, 4]: 1.30 ± 0.07 mmol/L
- Low density lipoprotein cholesterol [2, 4]: 0.12 ± 0.01 mmol/L
- Total cholesterol [2, 4]: 1.69 ± 0.11 mmol/L
- High density lipoprotein cholesterol [2, 5]: 1.18 ± 0.14 mmol/L
- Low density lipoprotein cholesterol [2, 5]: 0.10 ± 0.02 mmol/L
- Total cholesterol [2, 5]: 1.56 ± 0.17 mmol/L
- High density lipoprotein cholesterol [2, 6]: 1.14 ± 0.10 mmol/L
- Low density lipoprotein cholesterol [2, 6]: 0.10 ± 0.02 mmol/L
- Total cholesterol [2, 6]: 1.47 ± 0.11 mmol/L
- High density lipoprotein cholesterol [2, 7]: 1.27 ± 0.09 mmol/L
- Low density lipoprotein cholesterol [2, 7]: 0.10 ± 0.02 mmol/L
- Total cholesterol [2, 7]: 1.69 ± 0.09 mmol/L
- High density lipoprotein cholesterol [2, 8]: 1.28 ± 0.11 mmol/L
- Low density lipoprotein cholesterol [2, 8]: 0.11 ± 0.02 mmol/L
- Total cholesterol [2, 8]: 1.64 ± 0.13 mmol/L
- effect on total cholesterol, low-density and high-density lipoprotein cholesterol ([2]; female rats, normoxia): no significant effects
- High density lipoprotein cholesterol [2, 9]: 1.39 ± 0.10 mmol/L
- Low density lipoprotein cholesterol [2, 9]: 0.14 ± 0.03 mmol/L
- Total cholesterol [2, 9]: 1.87 ± 0.10 mmol/L
- effect on total cholesterol, low-density and high-density lipoprotein cholesterol ([2]; hypoxia exposed female rats): no significant effects
- effect on triglycerides ([2]; male rats exposed to hypoxia): is not found
- High density lipoprotein cholesterol ([2]; male rats, hypoxia, 0.91 mg/kg): 1.03 ± 0.09 mmol/L
- Low density lipoprotein cholesterol ([2]; male rats, hypoxia, 0.91 mg/kg): 0.16 ± 0.03 mmol/L
- Total cholesterol ([2]; male rats, hypoxia, 0.91 mg/kg): 1.47 ± 0.15 mmol/L
- Triglycerides ([2]; male rats, hypoxia, 0.91 mg/kg): 1.25 ± 0.64 mmol/L
- High density lipoprotein cholesterol ([2]; male rats, hypoxia, 1.83 mg/kg): 1.23 ± 0.11 mmol/L
- Low density lipoprotein cholesterol ([2]; male rats, hypoxia, 1.83 mg/kg): 0.20 ± 0.02 mmol/L
- Total cholesterol ([2]; male rats, hypoxia, 1.83 mg/kg): 1.71 ± 0.90 mmol/L
- Triglycerides ([2]; male rats, hypoxia, 1.83 mg/kg): 1.06 ± 0.35 mmol/L
- High density lipoprotein cholesterol ([2]; male rats, hypoxia, 3.66 mg/kg): 1.28 ± 0.09 mmol/L
- Low density lipoprotein cholesterol ([2]; male rats, hypoxia, 3.66 mg/kg): 0.19 ± 0.04 mmol/L
- Total cholesterol ([2]; male rats, hypoxia, 3.66 mg/kg): 1.80 ± 0.16 mmol/L
- Triglycerides ([2]; male rats, hypoxia, 3.66 mg/kg): 1.36 ± 0.58 mmol/L
- High density lipoprotein cholesterol ([2]; male rats, hypoxia, 7.31 mg/kg): 1.23 ± 0.10 mmol/L
- Low density lipoprotein cholesterol ([2]; male rats, hypoxia, 7.31 mg/kg): 0.16 ± 0.02 mmol/L
- Total cholesterol ([2]; male rats, hypoxia, 7.31 mg/kg): 1.69 ± 0.10 mmol/L
- Triglycerides ([2]; male rats, hypoxia, 7.31 mg/kg): 1.35 ± 0.36 mmol/L
- High density lipoprotein cholesterol [2, 10]: 1.44 ± 0.15 mmol/L
- Low density lipoprotein cholesterol [2, 10]: 0.19 ± 0.03 mmol/L
- Total cholesterol [2, 10]: 1.95 ± 0.15 mmol/L
- Triglycerides [2, 10]: 1.40 ± 0.74 mmol/L
- effect on low density lipoprotein cholesterol ([2]; male rats, low-dose): no significant effects
- effect on total cholesterol and high-density lipoprotein cholesterol ([2]; male rats, low-dose): reducing the amount
- Creatine Kinase [3, 4]: 505.43 ± 202.03 U/L
- Lactate dehydrogenase [3, 4]: 627.43 ± 253.66 U/L
- α-hydroxybutyrate dehydrogenase [3, 4]: 270.28 ± 111.79 U/L
- Creatine Kinase [3, 5]: 508.57 ± 235.83 U/L
- Lactate dehydrogenase [3, 5]: 650.00 ± 338.13 U/L
- α-hydroxybutyrate dehydrogenase [3, 5]: 286.71 ± 154.38 U/L
- Creatine Kinase [3, 6]: 459.14 ± 239.34 U/L
- Lactate dehydrogenase [3, 6]: 544.14 ± 314.26 U/L
- α-hydroxybutyrate dehydrogenase [3, 6]: 233.43 ± 147.72 U/L
- Creatine Kinase [3, 7]: 454.86 ± 241.51 U/L
- Lactate dehydrogenase [3, 7]: 499.71 ± 320.46 U/L
- α-hydroxybutyrate dehydrogenase [3, 7]: 210.14 ± 140.24 U/L
- Creatine Kinase [3, 8]: 439.86 ± 222.18 U/L
- Lactate dehydrogenase [3, 8]: 496.86 ± 259.65 U/L
- α-hydroxybutyrate dehydrogenase [3, 8]: 208.86 ± 112.12 U/L
- effect on serum lactic dehydrogenase, creatine kinase, α-hydroxybutyrate dehydrogenase activity ([3]; female rats, normoxia): increasing
- Creatine Kinase [3, 9]: 1024.00 ± 313.62 U/L
- Lactate dehydrogenase [3, 9]: 1199.14 ± 204.93 U/L
- α-hydroxybutyrate dehydrogenase [3, 9]: 537.29 ± 92.21 U/L
- effect on serum lactic dehydrogenase, creatine kinase, α-hydroxybutyrate dehydrogenase activity ([3]; hypoxia exposed female rats): has been not found
- effect on serum lactate dehydrogenase, creatine kinase, α-hydroxybutyrate dehydrogenase ([3]; hypoxia exposed male rats): has not been found
- Creatine Kinase ([3]; male rats, hypoxia, 0.91 mg/kg): 443.63 ± 260.18 U/L
- Lactate dehydrogenase ([3]; male rats, hypoxia, 0.91 mg/kg): 463.38 ± 364.37 U/L
- α-hydroxybutyrate dehydrogenase ([3]; male rats, hypoxia, 0.91 mg/kg): 218.00 ± 173.09 U/L
- Creatine Kinase ([3]; male rats, hypoxia, 1.83 mg/kg): 544.63 ± 418.71 U/L
- Lactate dehydrogenase ([3]; male rats, hypoxia, 1.83 mg/kg): 650.13 ± 573.72 U/L
